Test results taken from patent US20250270222A1, “AP2 ASSOCIATED KINASE 1 INHIBITORS AND USES THEREOF” (Satellos Bioscience Inc., priority 2023, published 2025).

Tests used:
Format in all cases: biochemical
[1] = target: AAK1 (amino acids T27-A365) (Homo sapiens (Human), UniProt Q2M2I8); assay: AAK1 pSENs assay; conditions: ratio of AAK1 pSENs activity to GAK pSENs activity
In short: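 Untagged, biotinylated E. coli-expressed AAK1 at 20 nM preincubated with compound 15 min at 25° C in HEPES pH 7.5 buffer with 10 mM MgCl2 and 1 mM DTT. Reaction started with AQT0759 and ATP, added as 30 uM and 70 uM solutions in equal volume.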

[2] = target: BIKE (amino acids S38-E345) (K320A, K321A) (Homo sapiens (Human), UniProt Q9NSY1, K320A/K321A); assay: BIKE pSENs assay
BIKE (amino acids S38-E345) (K320A, K321A), sequence (Q9NSY1 38-345 K320A/K321A): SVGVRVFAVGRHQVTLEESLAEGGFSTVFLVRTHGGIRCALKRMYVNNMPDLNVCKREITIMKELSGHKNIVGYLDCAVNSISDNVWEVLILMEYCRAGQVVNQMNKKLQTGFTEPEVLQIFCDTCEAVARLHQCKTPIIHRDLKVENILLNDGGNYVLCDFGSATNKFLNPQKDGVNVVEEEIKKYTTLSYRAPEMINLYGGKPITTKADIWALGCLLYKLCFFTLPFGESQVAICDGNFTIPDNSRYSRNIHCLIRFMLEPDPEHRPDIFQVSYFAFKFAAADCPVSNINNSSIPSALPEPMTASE
Method: The recombinant proteins were independently expressed in Esherichia coli BL21(DE3) cells cultured in Luria-Bertani (LB) medium until OD600 reached 0.6-0.8, then cooled to 15° C., and supplemented with 0.5 mM isopropyl 1-thio-D-galactopyranoside (IPTG) induce protein expression 16 h. Cells were harvested and resuspended in lysis buffer (50 mM HEPES pH 7.5, 500 mM NaCl, 5 mM imidazole, 5% glycerol, 0.5 mM Tris (2-carboxyethyl) phosphine (TCEP), cOmplete Protease Inhibitor Tablet (Roche)) and lysed by microfluidics high pressure homogenizer (UH-06, Union-Biotech). Proteins were purified using Ni-Affinity chromatography (His FF column, Bestchrom) and eluted stepwise in binding buffer with 20-300 mM imidazole. Removal of the hexahistidine tag was performed at 4° C. overnight using recombinant TEV protease and reacted with BirA to obtain the corresponding biotinylated-AAK1. BIKE or GAK proteins. Further separated in the reverse Strep column (Strep-Tactin® XT, IBA). The Biotin elution sample was collected containing untagged biotinylated protein was then purified by Ion-exchange chromatography (Mono Q 10/100 GL, Cytiva) and Size-exclusion chromatography (HiLoad 16/600 Superdex 200 pg, Cytiva). The pure protein was stored in a storage buffer 50 mM HEPES (pH 7.5), 300 mM NaCl, 5% glycerol at −80° C. Protein were characterized by SDS-PAGE. LC-MS and aSEC.
BIKE protein was dissolved at 20 nM in 1× enzyme solution (50 mM HEPES pH7.5, 10 mM MgCl2, 1 mM DTT, 1% glycerol, 0.5 mM EGTA, 0.01% Briji35, 0.02% BSA) and 12.5 ul was incubated with 250 nl DMSO or 250 nl compound in DMSO at 25° C. for 15 min. The reaction was started by addition of 12.5 ul of 30 uM AQT0759 (Assayquant, CSKS-AQT0759B) and 40 uM ATP which were diluted in 1× substrate dilution buffer (50 mM HEPES pH7.5, 10 mM MgCl2. 1 mM DTT, 1% glycerol, 0.5 mM EGTA, 0.01% Briji35).

[3] = target: GAK (amino acids Q25-N335) (Homo sapiens (Human), UniProt O14976); assay: GAK pSENs assay
GAK (amino acids Q25-N335), sequence (O14976 25-335): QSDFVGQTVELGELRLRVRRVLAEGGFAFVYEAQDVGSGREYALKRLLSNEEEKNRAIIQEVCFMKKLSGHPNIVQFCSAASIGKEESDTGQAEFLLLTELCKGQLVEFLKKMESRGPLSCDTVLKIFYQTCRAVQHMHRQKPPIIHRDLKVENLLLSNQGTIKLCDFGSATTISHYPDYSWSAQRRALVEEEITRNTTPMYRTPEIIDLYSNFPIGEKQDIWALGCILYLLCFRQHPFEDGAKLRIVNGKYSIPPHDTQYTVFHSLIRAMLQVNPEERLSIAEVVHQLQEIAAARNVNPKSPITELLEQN

AAK1 (amino acids T27-A365), sequence (Q2M2I8 27-365): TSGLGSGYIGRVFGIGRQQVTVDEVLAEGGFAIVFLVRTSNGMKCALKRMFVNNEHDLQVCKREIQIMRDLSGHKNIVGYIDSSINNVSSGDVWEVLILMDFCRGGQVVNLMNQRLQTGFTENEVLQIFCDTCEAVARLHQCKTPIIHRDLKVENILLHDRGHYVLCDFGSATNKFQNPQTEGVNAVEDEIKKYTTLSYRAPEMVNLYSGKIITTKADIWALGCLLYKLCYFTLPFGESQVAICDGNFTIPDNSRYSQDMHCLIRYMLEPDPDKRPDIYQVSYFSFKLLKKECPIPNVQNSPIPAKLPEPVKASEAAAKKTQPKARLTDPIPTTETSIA

Row | AAK1:GAK pSENs Selectivity [1] | IC50 [2] [nM] | IC50 [3] [nM] | Structure (SMILES)
1 | C (C: 0.076-0.15) | > 1500 | > 1500 | COC(=O)[C@@H]1CN(c2ccn3ncc(-c4cccnc4OC4CC4)c3n2)CCN1C(=O)O[C@@H]1CNC(=O)C1 [Compound I-41-5, 2-Methyl 1-((S)-5-oxopyrrolidin-3-yl) (S)-4-(3-(2-cyclopropoxypyridin-3-yl)pyrazolo[1,5-a]pyrimidin-5-yl)piperazine-1,2-dicarboxylate]
2 | E (E: >1.00) | > 1500 | > 1500 | Cc1nn2ccc(N3CCN(C(=O)O[C@H]4CC(=O)N(C)C4)CC3)nc2c1-c1cccnc1OC1CC1 [Compound I-108, [(3S)-1-methyl-5-oxo-pyrrolidin-3-yl]-4-[3-[2-(cyclopropoxy)-3-pyridyl]-2-methyl-pyrazolo[1,5-a]pyrimidin-5-yl]piperazine-1-carboxylate]
3 | C (C: 0.076-0.15) | > 1500 | > 1500 | O=C1C[C@H](OC(=O)N[C@@H]2CCN(c3ccn4ncc(-c5cccnc5OC5CC5)c4n3)C2)CN1 [Compound I-54, [(3S)-5-oxopyrrolidin-3-yl]N-[(3R)-1-[3-[2-(cyclopropoxy)-3-pyridyl]pyrazolo[1,5-a]pyrimidin-5-yl]pyrrolidin-3-yl]carbamate]
4 | C (C: 0.076-0.15) | > 1500 | > 1500 | C[C@@]1(OC(=O)N[C@@H]2CCN(c3ccn4ncc(-c5cccnc5OC5CC5)c4n3)C2)CCNC1 [Compound I-56, (R)-3-methylpyrrolidin-3-yl ((R)-1-(3-(2-cyclopropoxypyridin-3-yl)pyrazolo[1,5-a]pyrimidin-5-yl)pyrrolidin-3-yl)carbamate]
5 | B (B: 0.016-0.075) | > 1500 | > 1500 | C[C@H]1CN(c2ccn3ncc(-c4cccnc4OC4CC4)c3n2)CCN1C(=O)O[C@@H]1CNC(=O)C1 [Compound I-40, [(3S)-5-Oxopyrrolidin-3-yl](2S)-4-[3-[2-(cyclopropoxy)-3-pyridyl]pyrazolo[1,5-a]pyrimidin-5-yl]-2-methyl-piperazine-1-carboxylate]
6 | B (B: 0.016-0.075) | > 1500 | > 1500 | O=C1NCC[C@@H]1OC(=O)N1CCN(c2ccn3ncc(-c4cccnc4OC4CC4)c3n2)CC1 [Compound I-24, [(3S)-2-Oxopyrrolidin-3-yl]-4-[3-[2-(cyclopropoxy)-3-pyridyl]pyrazolo[1,5-a]pyrimidin-5-yl]piperazine-1-carboxylate]
7 | D (D: 0.16-1.00) | > 1500 | > 1500 | O=C(O[C@@H]1CC(=O)N(C2CCNCC2)C1)N1CCN(c2ccn3ncc(-c4cccnc4OC4CC4)c3n2)CC1 [Compound I-33, (R)-5-Oxo-1-(piperidin-4-yl)pyrrolidin-3-yl 4-(3-(2-cyclopropoxypyridin-3-yl)pyrazolo[1,5-a]pyrimidin-5-yl)piperazine-1-carboxylate]
8 | D (D: 0.16-1.00) | > 1500 | > 1500 | O=C1C[C@H](OC(=O)N[C@H]2CCN(c3ccn4ncc(-c5cccnc5OC5CC5)c4n3)C2)CN1 [Compound I-55, (S)-5-oxopyrrolidin-3-yl ((S)-1-(3-(2-cyclopropoxypyridin-3-yl)pyrazolo[1,5-a]pyrimidin-5-yl)pyrrolidin-3-yl)carbamate]
9 | C (C: 0.076-0.15) | > 1500 | > 1500 | CN1C[C@@H](OC(=O)N2CCN(c3nc4c(-c5cccnc5OC5CCCCC5)cnn4cc3F)CC2)CC1=O [Compound I-123, [(3S)-1-methyl-5-oxo-pyrrolidin-3-yl]-4-[3-[2-(cyclohexoxy)-3-pyridyl]-6-fluoro-pyrazolo[1,5-a]pyrimidin-5-yl]piperazine-1-carboxylate]
10 | E (E: >1.00) | > 1500 | > 1500 | CC(C)Nc1ncccc1-c1cnn2ccc(N3CCN(C(=O)O[C@@H]4CNC(=O)C4)CC3)nc12 [Compound I-47, [(3S)-5-oxopyrrolidin-3-yl]4-[3-[2-(isopropylamino)-3-pyridyl]pyrazolo[1,5-a]pyrimidin-5-yl]piperazine-1-carboxylate]
11 | B (B: 0.016-0.075) | > 1500 | > 1500 | COC(=O)N1CC(Oc2ncccc2-c2cnn3ccc(N4CCN(C(=O)O[C@@H]5CC(=O)N(CCOCc6ccccc6)C5)CC4)nc23)C1 [Compound I-84-6, [(3R)-1-(2-benzyloxyethyl)-5-oxo-pyrrolidin-3-yl]-4-[3-[2-(1-methoxycarbonyl-azetidin-3-yl)oxy-3-pyridyl]pyrazolo[1,5-a]pyrimidin-5-yl]piperazine-1-carboxylate]
12 | C (C: 0.076-0.15) | > 1500 | > 1500 | COC(=O)N1CC(Oc2ncccc2-c2cnn3ccc(N4CCN(C(=O)O[C@@H]5CC(=O)N(C6COC6)C5)CC4)nc23)C1 [Compound I-85, [(3R)-1-(oxetan-3-yl)-5-oxo-pyrrolidin-3-yl]-4-[3-[2-(1-methoxycarbonylazetidin-3-yl)oxy-3-pyridyl]pyrazolo[1,5-a]pyrimidin-5-yl]piperazine-1-carboxylate]
13 | D (D: 0.16-1.00) | > 1500 | > 1500 | O=C1C[C@H](OC(=O)N2CCN(c3ccn4ncc(-c5cccnc5OC5CC5)c4n3)C[C@H]2C(=O)O)CN1 [Compound I-41-4C, (S)-4-(3-(2-Cyclopropoxypyridin-3-yl)pyrazolo[1,5-a]pyrimidin-5-yl)-1-((((S)-5-oxopyrrolidin-3-yl)oxy)carbonyl)piperazine-2-carboxylic acid]
14 | E (E: >1.00) | > 1500 | > 1500 | COc1cn2ncc(-c3cccnc3OC3CC3)c2nc1N1CCN(C(=O)O[C@H]2CC(=O)N(C)C2)CC1 [Compound I-110-9, [(3S)-1-methyl-5-oxo-pyrrolidin-3-yl]-4-[3-[2-(cyclopropoxy)-3-pyridyl]-6-methoxy-pyrazolo[1,5-a]pyrimidin-5-yl]piperazine-1-carboxylate]

Row | Structure (SMILES) | AAK1:GAK pSENs Selectivity [1] | IC50 [2] [nM] | IC50 [3] [nM]
15 | CC1(OC(=O)N2CCN(c3ccn4ncc(-c5cccnc5OC5CCC5)c4n3)CC2)COC1 [Compound I-17, (3-Methyloxetan-3-yl) 4-[3-[2-(cyclobutoxy)-3-pyridyl]pyrazolo[1,5-a]pyrimidin-5-yl]piperazine-1-carboxylate] | B (B: 0.016-0.075) | > 1500 | > 1500
16 | CC1(OC(=O)N2CCN(c3ccn4ncc(-c5cccnc5OCC5CCC5)c4n3)CC2)COC1 [Compound I-19, 3-Methyloxetan-3-yl 4-(3-(2-(cyclobutylmethoxy)pyridin-3-yl)pyrazolo[1,5-a]pyrimidin-5-yl)piperazine-1-carboxylate] | D (D: 0.16-1.00) | > 1500 | > 1500
17 | CN(C)CCN1CC[C@@](C)(OC(=O)N2CCN(c3ccn4ncc(-c5cccnc5OC5CC5)c4n3)CC2)C1 [Compound I-53, (R)-1-(2-(dimethylamino)ethyl)-3-(methylpyrrolidin-3-yl)-4-(3-(2-cyclopropoxypyridin-3-yl)pyrazolo[1,5-a]pyrimidin-5-yl)piperazine-1-carboxylate] | A (A: ≤0.015) | 501 to 1500 | > 1500
18 | O=C(O[C@H]1CO[C@H]2OCC[C@H]21)N1CCN(c2ccn3ncc(-c4ccncn4)c3n2)CC1 [Compound I-67] | C (C: 0.076-0.15) | > 1500 | > 1500
